{"source": "patent US4738979A", "about": "“α2 -blocking derivatives of imidazole” (G. D. Searle & Co., priority 1985, dated 1988)", "key": {"[1]": {"target": "T1, α2 -adrenergic receptors (Rattus norvegicus, UniProt P22909)", "T1 construct": "from tissue; host or cells: rat brain homogenates", "T1 sequence (P22909 1-465)": "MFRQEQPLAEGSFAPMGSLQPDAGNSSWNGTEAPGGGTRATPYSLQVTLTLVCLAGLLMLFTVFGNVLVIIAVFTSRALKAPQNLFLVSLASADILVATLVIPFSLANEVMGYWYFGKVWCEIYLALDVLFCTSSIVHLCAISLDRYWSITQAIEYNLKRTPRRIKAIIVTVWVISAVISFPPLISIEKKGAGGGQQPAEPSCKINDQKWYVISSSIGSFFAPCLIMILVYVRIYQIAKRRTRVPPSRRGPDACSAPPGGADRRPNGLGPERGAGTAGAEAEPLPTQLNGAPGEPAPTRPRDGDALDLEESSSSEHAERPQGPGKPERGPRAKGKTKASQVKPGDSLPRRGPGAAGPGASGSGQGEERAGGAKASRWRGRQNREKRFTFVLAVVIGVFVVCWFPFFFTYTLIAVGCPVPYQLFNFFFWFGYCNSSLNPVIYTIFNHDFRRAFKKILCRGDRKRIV", "assay": "binding to α2-adrenergic receptors on rat brain homogenates (3H-p. aminoclonidine)", "conditions": "10^-7 M; for inhibition at 0.1 µM: rat brain homogenates, 0.7 nM 3H-p. aminoclonidine, read-out: % Inhibition of the Specific Binding at 10^-7 M for α2 Recep.", "experimental": "(§1) The activity of the compounds according to the invention with respect to binding of the α-adrenergic receptors was determined in vitro according to a method deriving from the works of B. R. Rouot et al., Life Sci., 25, 769 (1979) and of D. U'Prichard et al., Mol. Pharmacol., 13, 454 (1977). This method consists in measuring the binding to the receptor on rat brain homogenates, by marking by means of a specific tritriated ligand placed in competition with the product to be tested.\n(§2) In the presenct case the binding to the α1 -adrenergic receptors was measured by means of 1.6 nM of ^3 H-WB 4101 and the binding to the α2 -adrenergic receptors by means of 0.7 nM of ^3 H-p. aminoclonidine, the non-specific binding being determined by 1,000 nM of phentolamine. The results are given in Table II, column 3, and are expressed in terms of percentage of inhibition of the specific binding of 10^-7 molar compound concentration.\n(§3) (2) The specific binding is the total binding less the nonspecific\n(§4) binding. The total binding is the binding in the absence of nonradioactiv\n(§5) drug. The nonspecific binding is the binding in the presence of 1,000 nM\n(§6) of phentolamine. The products of the invention are tested at a\n(§7) concentration of 10^-7 molar."}, "[2]": {"assay": "acute toxicity after oral administration to mice (LD50)", "conditions": "mouse, in vivo, 15 days mortality", "experimental": "The acute toxicity of the compounds of the present invention was studied after oral administration to mice. The products to be tested, suspended in a 1% tragacanth gum mucilage, were administered by means of an intragastric probe to groups of three male mice which had fasted since the preceding day. The doses tested are a function of the effect observed and can vary from 3,000 to 3 mg/kg or less. The mortality was recorded for 15 days. The lethal dose for 50% of the animals (LD50) was calculated according to the method of J. Litchfield and F. Wilcoxon, J. Pharmacol. Exp. Ther., 96, 99 (1949) and expressed in mg/kg. The effect of the products on the behaviour of the animals is observed until 5 to 6 hours after the treatment indicated above and after 24 hours, using a method derived from that of S. Irwin, described by R. A. Turner, Screening Methods in Pharmacology, Chapter 3, pages 22-34, Academic Press, 1965. If anomalies are noted, the observation is prolonged and smaller doses are tested."}, "[3]": {"tested_on": "α1 -adrenergic receptors", "assay": "binding to α1-adrenergic receptors on rat brain homogenates (3H-WB 4101)", "conditions": "1.6 nM 3H-WB 4101", "experimental": "as §1, §2, §3, §4, §5, §6, §7"}, "[4]": {"tested_on": "3-mercaptopropionic acid (3-MPA)-induced tonic extension in mice", "assay": "protection against 3-mercaptopropionic acid (3-MPA)-induced tonic extension in mice", "format": "in vivo", "conditions": "100 mg/kg orally, 30 minutes prior to 3-MPA (120 mg/kg s.c.)", "experimental": "In the second study the anti-convulsant effect of the compounds of the present invention was examined in two seizure models; bicuculline-induced tonic extension in mice and 3-mercaptopropionic acid (3-MPA)-induced tonic extension in mice.\nIn the bicuculline study, the ability of the compounds of the present invention to protect against tonic extension (involving rigidity) was evaluated as follows. Each test compound was administered to a group of ten mice at a dose of 10 mg/kg, 3 hours prior to the i.v. administration of bicuculline (0.7 mg/kg). Anticonvulsant activity in this test is expressed as percentage of animals tested. The results are given in Table II, column 6, and indicate that several compounds display significant anticonvulsive activity in this test. The anticonvulsant effect of the compounds has also been tested with respect to the tonic extension induced by 3-mercaptopropionic acid (120 mg/kg subcutaneously) in mice.\nIn the 3-MPA assay, the compounds of the present invention are administered orally at a dose of 100 mg/kg 30 minutes prior to administration of 3-MPA. Each compound was tested on a group of 5 mice; if more than 1 mouse was protected, a second group of 5 mice was tested."}, "[5]": {"tested_on": "α2 -adrenergic receptors", "conditions": "cited from earlier work"}}}
{"smiles": "Fc1ccccc1C(Cc1c[nH]cn1)c1ccccc1", "note": "(stereo not shown) [Compound 28, 4(5)-{[2-(2-fluorophenyl)-2-phenyl]ethyl}imidazole]", "values": [{"measurement": "inhibition at 0.1 µM", "setting": "[1]", "result": 95, "unit": "%"}, {"measurement": "affinity for α2 receptors (in words)", "setting": "[1]; in vitro binding assay", "result": "high affinity"}, {"measurement": "LD50 at 360 h", "setting": "[2]", "result": 94, "unit": "mg/kg"}, {"measurement": "% Inhibition of the Specific Binding at 10^-7 M for α1 Recep.", "setting": "[3]", "result": 8, "unit": "%"}, {"measurement": "anticonvulsant effect versus 3-MPA (in words)", "setting": "[4]", "result": "potent anticonvulsant effect"}]}
{"smiles": "c1ccc(-c2ccc(C(Cc3c[nH]cn3)c3ccccc3)cc2)cc1", "note": "(stereo not shown) [Compound 29, 4(5)-{[2-(4-biphenyl)-2-phenyl]ethyl}imidazole]", "values": [{"measurement": "inhibition at 0.1 µM", "setting": "[1]", "result": 23, "unit": "%"}, {"measurement": "LD50 at 360 h", "setting": "[2]", "result": "> 300", "unit": "mg/kg"}, {"measurement": "% Inhibition of the Specific Binding at 10^-7 M for α1 Recep.", "setting": "[3]", "result": 15, "unit": "%"}, {"measurement": "anticonvulsant effect versus 3-MPA (in words)", "setting": "[4]", "result": "potent anticonvulsant effect"}]}
{"smiles": "COC(=O)[C@H]1[C@H]2C[C@H]3c4[nH]c5ccccc5c4CCN3C[C@H]2CC[C@@H]1O", "note": "[rauwolscine]", "values": [{"measurement": "selectivity (in words)", "setting": "[5]", "result": "lack selectivity"}, {"measurement": "side-effects (in words)", "setting": "[5]", "result": "numerous side-effects"}]}
{"smiles": "COC(=O)[C@@H]1[C@H]2C[C@H]3c4[nH]c5ccccc5c4CCN3C[C@@H]2CC[C@@H]1O", "note": "[yohimbine]", "values": [{"measurement": "selectivity (in words)", "setting": "[5]", "result": "lack selectivity"}, {"measurement": "side-effects (in words)", "setting": "[5]", "result": "numerous side-effects"}]}
